Measurements from PubChem BioAssay AID1963825 (Molecular Pharmacology Branch, DTP, NCI, 2024).

Assay: Anticancer human tumor 997537-175-T-J1-PDC patient-derived colon adenocarcinoma cell line growth inhibition [POLQ]
Conditions: 997537-175-T-J1-PDC complex spheroid viability, combination with POLQ inhibitors; for IC50: curve of first compound; for viability, T/C: stronger effect = lower value
How it was run: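 Growth inhibition in 3D: complex spheroids (tumor PDC, HUVEC, MSC) treated with POLQ inhibitor combinations; where Cmax unknown, highest tested concentration 10 microM, except SN-38 at 1 microM.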

[1] = second compound 0.0316 µM, first compound 0.0316 µM
[2] = second compound 0.0316 µM, first compound 0.1 µM
[3] = second compound 0.0316 µM, first compound 0.316 µM
[4] = second compound 0.0316 µM, first compound 1 µM
[5] = second compound 0.0316 µM, first compound 3.16 µM
[6] = second compound 0.0316 µM, first compound 10 µM
[7] = second compound 0.1 µM, first compound 0.0316 µM
[8] = second compound 0.1 µM, first compound 0.1 µM
[9] = second compound 0.1 µM, first compound 0.316 µM
[10] = second compound 0.1 µM, first compound 1 µM
[11] = second compound 0.1 µM, first compound 3.16 µM
[12] = second compound 0.1 µM, first compound 10 µM
[13] = second compound 0.316 µM, first compound 0.0316 µM
[14] = second compound 0.316 µM, first compound 0.1 µM
[15] = second compound 0.316 µM, first compound 0.316 µM
[16] = second compound 0.316 µM, first compound 1 µM
[17] = second compound 0.316 µM, first compound 3.16 µM
[18] = second compound 0.316 µM, first compound 10 µM
[19] = second compound 1 µM, first compound 0.0316 µM
[20] = second compound 1 µM, first compound 0.1 µM
[21] = second compound 1 µM, first compound 0.316 µM
[22] = second compound 1 µM, first compound 1 µM
[23] = second compound 1 µM, first compound 3.16 µM
[24] = second compound 1 µM, first compound 10 µM
[25] = second compound 3.16 µM, first compound 0.0316 µM
[26] = second compound 3.16 µM, first compound 0.1 µM
[27] = second compound 3.16 µM, first compound 0.316 µM
[28] = second compound 3.16 µM, first compound 1 µM
[29] = second compound 3.16 µM, first compound 3.16 µM
[30] = second compound 3.16 µM, first compound 10 µM
[31] = second compound 10 µM, first compound 0.0316 µM
[32] = second compound 10 µM, first compound 0.1 µM
[33] = second compound 10 µM, first compound 0.316 µM
[34] = second compound 10 µM, first compound 1 µM
[35] = second compound 10 µM, first compound 3.16 µM
[36] = second compound 10 µM, first compound 10 µM
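Further: luminescence signal used as a surrogate for viable cells; spheroids exposed to drugs for seven days before readout.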

For `C#Cc1c(F)ccc2cc(O)cc(-c3ncc4c(N5CC6CCC(C5)N6)nc(OCC56CCCN5CC(F)C6)nc4c3F)c12` (centres undefined) + Nc1ccc(C#CCN(C(=O)Cc2ncc(C(F)(F)F)cc2C(F)(F)F)c2ccc(F)cc2)nn1, the IC50 (second compound 0.0316 µM) was > 10 µM, the IC50 (second compound 0.1 µM) was > 10 µM and the IC50 (second compound 0.316 µM) was > 10 µM. The IC50 (second compound 1 µM) was > 10 µM, the IC50 (second compound 3.16 µM) was > 10 µM and the IC50 (second compound 10 µM) was > 10 µM. The viability, T/C [1] was 92.4%, the viability, T/C [2] was 93% and the viability, T/C [3] was 108%. The viability, T/C [4] was 106%, the viability, T/C [5] was 102% and the viability, T/C [6] was 96.5%. The viability, T/C [7] was 101%, the viability, T/C [8] was 110% and the viability, T/C [9] was 101%. The viability, T/C [10] was 86.8%, the viability, T/C [11] was 94.1% and the viability, T/C [12] was 96.7%. It also gave a viability, T/C [13] of 105%, a viability, T/C [14] of 105% and a viability, T/C [15] of 101%. The viability, T/C [16] was 96.9%, the viability, T/C [17] was 103% and the viability, T/C [18] was 110%. It also gave a viability, T/C [19] of 106%, a viability, T/C [20] of 103% and a viability, T/C [21] of 95.8%. For the same molecule, the viability, T/C [22] was 82.8%, the viability, T/C [23] was 106% and the viability, T/C [24] was 98.1%. It also gave a viability, T/C [25] of 94.9%, a viability, T/C [26] of 103% and a viability, T/C [27] of 99.5%. For the same molecule, the viability, T/C [28] was 92.7%, the viability, T/C [29] was 104% and the viability, T/C [30] was 107%. It also gave a viability, T/C [31] of 104%, a viability, T/C [32] of 102% and a viability, T/C [33] of 100%. For the same molecule, the viability, T/C [34] was 112%, the viability, T/C [35] was 98.8% and the viability, T/C [36] was 110%.
With `O=C(Nc1ccc(O)c(NS(=O)(=O)c2ccc(F)cc2)c1)c1ccc(-c2ccccc2)cc1` + Nc1ccc(C#CCN(C(=O)Cc2ncc(C(F)(F)F)cc2C(F)(F)F)c2ccc(F)cc2)nn1 the IC50 (second compound 0.0316 µM) was > 10 µM, the IC50 (second compound 0.1 µM) was > 10 µM and the IC50 (second compound 0.316 µM) was > 10 µM. The IC50 (second compound 1 µM) was > 10 µM, the IC50 (second compound 3.16 µM) was > 10 µM and the IC50 (second compound 10 µM) was > 10 µM. It also gave a viability, T/C [1] of 106%, a viability, T/C [2] of 108% and a viability, T/C [3] of 106%. The viability, T/C [4] was 99.1%, the viability, T/C [5] was 91.3% and the viability, T/C [6] was 97.7%. The viability, T/C [7] was 109%, the viability, T/C [8] was 91.9% and the viability, T/C [9] was 96.8%. It also gave a viability, T/C [10] of 105%, a viability, T/C [11] of 119% and a viability, T/C [12] of 87.5%. The viability, T/C [13] was 104%, the viability, T/C [14] was 114% and the viability, T/C [15] was 106%. For the same molecule, the viability, T/C [16] was 101%, the viability, T/C [17] was 107% and the viability, T/C [18] was 84.6%. For the same molecule, the viability, T/C [19] was 105%, the viability, T/C [20] was 105% and the viability, T/C [21] was 95.2%. It also gave a viability, T/C [22] of 101%, a viability, T/C [23] of 102% and a viability, T/C [24] of 89.8%. The viability, T/C [25] was 98%, the viability, T/C [26] was 97.9% and the viability, T/C [27] was 114%. The viability, T/C [28] was 110%, the viability, T/C [29] was 102% and the viability, T/C [30] was 90.9%. It also gave a viability, T/C [31] of 105%, a viability, T/C [32] of 101% and a viability, T/C [33] of 113%. It also gave a viability, T/C [34] of 103%, a viability, T/C [35] of 97.4% and a viability, T/C [36] of 81%.
